Article PMC2810234, “Lyngbyastatins 8–10, Elastase Inhibitors with Cyclic Depsipeptide Scaffolds Isolated from the Marine Cyanobacterium Lyngbya semiplena” (Marine Drugs, 2009)

target: T1, porcine pancreatic elastase (Sus scrofa, UniProt P00772); assay: Inhibition of porcine pancreatic elastase; format: biochemical; conditions: elastase stock 75 μg/mL (5 μL), Tris-HCl pH 8.0; compound 1 μL in DMSO; preincubated 15 min at room temperature; substrate 2 mM N-succinyl-Ala-Ala-Ala-p-nitroanilide solution (15 μL); absorbance 405 nm every 30 s, initial slope vs uninhibited; triplicate
T1 construct: purchased EPC (Elastin Products Company) EC134
T1 sequence (P00772 27-266): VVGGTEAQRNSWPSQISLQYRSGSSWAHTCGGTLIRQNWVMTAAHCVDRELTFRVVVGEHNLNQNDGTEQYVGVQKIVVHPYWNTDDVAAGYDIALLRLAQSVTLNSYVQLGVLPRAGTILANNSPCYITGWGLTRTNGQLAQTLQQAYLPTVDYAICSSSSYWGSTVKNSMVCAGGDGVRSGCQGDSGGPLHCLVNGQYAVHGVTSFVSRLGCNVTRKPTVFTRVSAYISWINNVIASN
Experimental: A stock solution of porcine pancreatic elastase (Elastase-high purity; EPC, EC134) was prepared at a concentration of 75 μg/mL in Tris-HCl (pH 8.0). Aliquots of test compounds (1 μL, DMSO) were preincubated with 79 μL Tris-HCl (pH 8.0) and 5 μL elastase stock for 15 min at room temperature in a microtiter plate. After this time, 15 μL substrate solution was added (2 mM N-succinyl-Ala-Ala-Ala-p-nitroanilide in Tris-HCl, pH 8.0) to each well, and the reaction was followed by measuring the absorbance at 405 nm every 30 s. Enzyme activity was determined by calculating the initial slope of each progress curve, expressed as a percentage of the slope of the uninhibited reaction.

Question: With C/C=C1\NC(=O)[C@@H](NC(=O)[C@@H](NC(=O)[C@H](C)NC(=O)CCC)C(C)C)[C@@H](C)OC(=O)[C@H](C(C)C)NC(=O)[C@H](Cc2ccc(O)c(Br)c2)N(C)C(=O)[C@H](Cc2ccccc2)N2C(=O)[C@H](CC[C@H]2O)NC1=O [Compound 3, Lyngbyastatin 10] as the molecule, how does the IC50 read?
Answer: 120 ± 16 nM

Question: With C/C=C1\NC(=O)[C@@H](NC(=O)[C@@H](NC(=O)[C@H](C)NC(=O)CCC)C(C)C)[C@@H](C)OC(=O)[C@H](C(C)C)NC(=O)[C@H](Cc2ccc(O)cc2)N(C)C(=O)[C@H](Cc2ccccc2)N2C(=O)[C@H](CC[C@H]2O)NC1=O [Compound 2, Lyngbyastatin 9] as the molecule, how does the IC50 read?
Answer: 210 ± 10 nM

Question: With C/C=C1\NC(=O)[C@@H](NC(=O)[C@@H](NC(=O)[C@H](C)NC(C)=O)C(C)C)[C@@H](C)OC(=O)[C@H](C(C)C)NC(=O)[C@H](Cc2ccc(O)cc2)N(C)C(=O)[C@H](Cc2ccccc2)N2C(=O)[C@H](CC[C@H]2O)NC1=O [Compound 1, Lyngbyastatin 8] as the molecule, how does the IC50 read?
Answer: 123 ± 2 nM
